Test results reported in ChEMBL document CHEMBL5291721, “A preclinical secondary pharmacology resource illuminates target-adverse drug reaction associations of marketed drugs” (Nat Commun, 2023).

What was measured:
[1] = biological target: Beta-2 adrenergic receptor (Homo sapiens, UniProt P07550); type: functional, cell-based
Cannabinoid receptor 1 = Cannabinoid receptor 1 (Homo sapiens, UniProt P21554); type: functional, cell-based
Endothelin-1 receptor = biological target: T1, Endothelin-1 receptor (Homo sapiens, UniProt P25101)
T1 sequence (P25101 whole entry): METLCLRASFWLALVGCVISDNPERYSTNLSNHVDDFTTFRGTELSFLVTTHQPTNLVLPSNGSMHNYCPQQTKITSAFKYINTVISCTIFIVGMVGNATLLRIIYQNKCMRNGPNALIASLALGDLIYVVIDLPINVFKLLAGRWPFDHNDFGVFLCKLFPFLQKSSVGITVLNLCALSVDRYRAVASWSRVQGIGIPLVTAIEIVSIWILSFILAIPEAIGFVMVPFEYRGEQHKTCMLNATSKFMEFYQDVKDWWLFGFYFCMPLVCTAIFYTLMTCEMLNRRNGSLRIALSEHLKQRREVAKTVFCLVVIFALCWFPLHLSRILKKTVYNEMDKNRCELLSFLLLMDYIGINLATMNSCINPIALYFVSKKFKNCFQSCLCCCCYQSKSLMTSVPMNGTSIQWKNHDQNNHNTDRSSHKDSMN

Estrogen receptor = biological target: T2, Estrogen receptor (Homo sapiens, UniProt P03372)
T2 sequence (P03372 whole entry): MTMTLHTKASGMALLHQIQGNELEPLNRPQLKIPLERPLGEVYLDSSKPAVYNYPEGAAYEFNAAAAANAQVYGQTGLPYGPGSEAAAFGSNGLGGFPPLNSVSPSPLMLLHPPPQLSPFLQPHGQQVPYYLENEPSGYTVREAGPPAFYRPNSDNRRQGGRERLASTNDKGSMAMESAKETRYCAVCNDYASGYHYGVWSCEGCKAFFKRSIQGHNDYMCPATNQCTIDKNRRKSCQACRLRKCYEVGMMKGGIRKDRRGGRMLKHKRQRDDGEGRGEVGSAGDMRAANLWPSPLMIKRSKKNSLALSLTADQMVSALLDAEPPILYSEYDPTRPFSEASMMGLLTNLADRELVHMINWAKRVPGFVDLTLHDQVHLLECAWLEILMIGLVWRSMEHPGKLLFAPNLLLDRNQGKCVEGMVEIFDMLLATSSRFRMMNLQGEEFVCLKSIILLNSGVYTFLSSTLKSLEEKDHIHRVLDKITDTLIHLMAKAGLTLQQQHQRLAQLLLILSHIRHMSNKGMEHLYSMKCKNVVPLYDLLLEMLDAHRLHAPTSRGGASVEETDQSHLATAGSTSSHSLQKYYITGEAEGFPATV

[2] = biological target: Kappa-type opioid receptor (Homo sapiens, UniProt P41145)
Mu-type opioid receptor = Mu-type opioid receptor (Homo sapiens, UniProt P35372); experiment: biochemical; type: functional
[3] = biological target: Muscarinic acetylcholine receptor M3 (Homo sapiens, UniProt P20309)
Acetylcholinesterase = Acetylcholinesterase (Homo sapiens, UniProt P22303); type: functional
D(3) dopamine receptor = D(3) dopamine receptor (Homo sapiens, UniProt P35462)
[4] = biological target: Sodium-dependent noradrenaline transporter (Homo sapiens, UniProt P23975)
Thromboxane A2 receptor = biological target: T3, Thromboxane A2 receptor (Homo sapiens, UniProt P21731); type: functional, cell-based
T3 sequence (P21731 whole entry): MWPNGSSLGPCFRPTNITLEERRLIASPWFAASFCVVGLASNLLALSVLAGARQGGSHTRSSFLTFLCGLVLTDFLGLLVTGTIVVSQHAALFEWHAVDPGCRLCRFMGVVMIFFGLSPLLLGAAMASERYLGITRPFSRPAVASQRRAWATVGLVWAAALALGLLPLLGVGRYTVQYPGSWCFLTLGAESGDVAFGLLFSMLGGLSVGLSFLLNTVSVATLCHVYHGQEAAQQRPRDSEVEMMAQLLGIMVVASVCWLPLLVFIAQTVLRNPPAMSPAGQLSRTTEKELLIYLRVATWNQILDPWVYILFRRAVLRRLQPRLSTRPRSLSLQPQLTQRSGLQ

Adenosine receptor A3 = biological target: T4, Adenosine receptor A3 (Homo sapiens, UniProt P0DMS8)
T4 sequence (P0DMS8 whole entry): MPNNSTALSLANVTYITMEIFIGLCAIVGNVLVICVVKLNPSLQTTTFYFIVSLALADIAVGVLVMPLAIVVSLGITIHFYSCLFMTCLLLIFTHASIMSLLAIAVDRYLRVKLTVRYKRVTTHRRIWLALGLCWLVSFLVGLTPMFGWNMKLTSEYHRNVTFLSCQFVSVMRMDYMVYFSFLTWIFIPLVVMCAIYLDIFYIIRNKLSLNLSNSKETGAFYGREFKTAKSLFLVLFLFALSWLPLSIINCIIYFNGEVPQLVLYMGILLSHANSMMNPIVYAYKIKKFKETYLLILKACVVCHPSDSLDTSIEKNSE

[5] = biological target: T5, Alpha-1A adrenergic receptor (Homo sapiens, UniProt P35348); type: functional, cell-based
T5 sequence (P35348 whole entry): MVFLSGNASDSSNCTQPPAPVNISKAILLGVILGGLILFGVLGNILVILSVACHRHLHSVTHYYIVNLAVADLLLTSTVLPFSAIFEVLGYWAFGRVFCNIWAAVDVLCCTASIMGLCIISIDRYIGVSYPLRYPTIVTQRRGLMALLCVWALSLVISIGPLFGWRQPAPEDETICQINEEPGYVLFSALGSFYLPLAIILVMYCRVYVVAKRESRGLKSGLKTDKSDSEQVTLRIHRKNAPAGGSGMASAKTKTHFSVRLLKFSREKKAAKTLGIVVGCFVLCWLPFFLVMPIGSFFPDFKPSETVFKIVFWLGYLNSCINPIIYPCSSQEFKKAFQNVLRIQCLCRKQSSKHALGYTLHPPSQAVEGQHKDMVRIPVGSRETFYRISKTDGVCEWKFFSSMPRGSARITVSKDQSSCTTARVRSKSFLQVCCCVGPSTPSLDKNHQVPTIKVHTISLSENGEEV
Also: assay procedure not described here.

Chain of D(3) dopamine receptor (P35462 whole entry): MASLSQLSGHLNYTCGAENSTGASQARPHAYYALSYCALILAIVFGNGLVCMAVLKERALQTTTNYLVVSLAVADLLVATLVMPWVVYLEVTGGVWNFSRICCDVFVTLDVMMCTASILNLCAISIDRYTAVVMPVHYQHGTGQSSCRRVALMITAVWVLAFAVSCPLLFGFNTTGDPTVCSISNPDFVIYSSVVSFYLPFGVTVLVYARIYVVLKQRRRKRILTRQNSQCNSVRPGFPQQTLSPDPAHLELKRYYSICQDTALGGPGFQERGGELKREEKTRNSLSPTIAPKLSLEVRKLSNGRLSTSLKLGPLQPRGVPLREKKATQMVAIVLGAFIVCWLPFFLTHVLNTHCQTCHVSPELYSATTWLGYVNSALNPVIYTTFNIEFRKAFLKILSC
Chain of Sodium-dependent noradrenaline transporter (P23975 whole entry): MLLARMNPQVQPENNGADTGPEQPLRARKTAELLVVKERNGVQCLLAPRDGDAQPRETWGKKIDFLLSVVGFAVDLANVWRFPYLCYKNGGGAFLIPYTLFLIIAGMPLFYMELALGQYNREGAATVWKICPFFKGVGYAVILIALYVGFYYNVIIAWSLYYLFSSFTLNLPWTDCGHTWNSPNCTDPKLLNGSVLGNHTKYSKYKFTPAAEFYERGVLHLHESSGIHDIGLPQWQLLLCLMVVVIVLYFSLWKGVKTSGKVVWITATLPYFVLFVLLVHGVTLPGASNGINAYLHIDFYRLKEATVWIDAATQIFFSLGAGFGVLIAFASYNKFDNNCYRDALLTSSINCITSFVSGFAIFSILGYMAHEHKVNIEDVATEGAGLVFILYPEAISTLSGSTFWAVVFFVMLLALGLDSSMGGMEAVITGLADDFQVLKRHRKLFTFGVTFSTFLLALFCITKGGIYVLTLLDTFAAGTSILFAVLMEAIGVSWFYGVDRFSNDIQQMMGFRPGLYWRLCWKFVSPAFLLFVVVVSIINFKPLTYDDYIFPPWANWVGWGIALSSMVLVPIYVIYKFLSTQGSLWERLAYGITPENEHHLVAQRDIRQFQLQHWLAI
Chain of Cannabinoid receptor 1 (P21554 whole entry): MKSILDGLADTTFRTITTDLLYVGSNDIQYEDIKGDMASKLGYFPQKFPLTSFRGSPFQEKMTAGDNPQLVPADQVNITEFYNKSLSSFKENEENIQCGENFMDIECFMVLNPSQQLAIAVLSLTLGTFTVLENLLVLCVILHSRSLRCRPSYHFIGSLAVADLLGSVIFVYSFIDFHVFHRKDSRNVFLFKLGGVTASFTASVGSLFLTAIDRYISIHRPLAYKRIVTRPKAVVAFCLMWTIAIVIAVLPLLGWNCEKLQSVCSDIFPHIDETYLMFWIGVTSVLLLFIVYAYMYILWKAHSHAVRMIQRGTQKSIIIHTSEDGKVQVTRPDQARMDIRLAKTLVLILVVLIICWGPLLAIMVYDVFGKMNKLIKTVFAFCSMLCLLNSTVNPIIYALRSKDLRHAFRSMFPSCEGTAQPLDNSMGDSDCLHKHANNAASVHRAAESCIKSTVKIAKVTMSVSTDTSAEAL
Chain of Muscarinic acetylcholine receptor M3 (P20309 whole entry): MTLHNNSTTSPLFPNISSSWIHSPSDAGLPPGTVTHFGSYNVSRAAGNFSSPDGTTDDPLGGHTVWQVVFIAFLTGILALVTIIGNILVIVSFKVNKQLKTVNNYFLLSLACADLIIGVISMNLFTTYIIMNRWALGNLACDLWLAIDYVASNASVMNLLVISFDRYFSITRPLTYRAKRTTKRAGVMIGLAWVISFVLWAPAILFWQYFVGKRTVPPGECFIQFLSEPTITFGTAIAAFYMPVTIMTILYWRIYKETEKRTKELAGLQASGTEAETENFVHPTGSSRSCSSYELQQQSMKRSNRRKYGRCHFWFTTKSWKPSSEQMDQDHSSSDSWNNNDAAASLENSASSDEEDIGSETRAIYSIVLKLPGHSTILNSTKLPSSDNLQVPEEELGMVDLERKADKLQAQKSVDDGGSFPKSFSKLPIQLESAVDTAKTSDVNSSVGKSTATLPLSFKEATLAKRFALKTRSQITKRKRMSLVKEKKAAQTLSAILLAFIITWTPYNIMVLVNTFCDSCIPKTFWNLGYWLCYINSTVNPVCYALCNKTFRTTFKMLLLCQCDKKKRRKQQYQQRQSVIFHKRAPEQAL
Chain of Acetylcholinesterase (P22303 whole entry): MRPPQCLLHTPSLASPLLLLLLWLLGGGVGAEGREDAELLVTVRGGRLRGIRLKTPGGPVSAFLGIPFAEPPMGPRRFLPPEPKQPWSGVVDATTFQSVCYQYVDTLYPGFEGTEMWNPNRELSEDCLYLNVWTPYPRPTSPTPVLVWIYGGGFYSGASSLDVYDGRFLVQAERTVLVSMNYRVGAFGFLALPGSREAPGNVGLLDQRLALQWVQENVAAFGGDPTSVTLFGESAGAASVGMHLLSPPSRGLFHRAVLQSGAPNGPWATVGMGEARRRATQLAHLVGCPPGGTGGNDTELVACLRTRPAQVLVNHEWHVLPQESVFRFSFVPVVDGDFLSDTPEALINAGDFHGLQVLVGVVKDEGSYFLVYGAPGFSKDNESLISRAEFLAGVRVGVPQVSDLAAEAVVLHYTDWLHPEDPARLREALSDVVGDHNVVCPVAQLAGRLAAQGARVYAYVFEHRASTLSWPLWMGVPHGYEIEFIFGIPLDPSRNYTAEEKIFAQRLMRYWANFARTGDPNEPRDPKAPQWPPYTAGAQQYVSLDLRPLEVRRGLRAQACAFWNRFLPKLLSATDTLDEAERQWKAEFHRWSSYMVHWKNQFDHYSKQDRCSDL
Chain of Mu-type opioid receptor (P35372 whole entry): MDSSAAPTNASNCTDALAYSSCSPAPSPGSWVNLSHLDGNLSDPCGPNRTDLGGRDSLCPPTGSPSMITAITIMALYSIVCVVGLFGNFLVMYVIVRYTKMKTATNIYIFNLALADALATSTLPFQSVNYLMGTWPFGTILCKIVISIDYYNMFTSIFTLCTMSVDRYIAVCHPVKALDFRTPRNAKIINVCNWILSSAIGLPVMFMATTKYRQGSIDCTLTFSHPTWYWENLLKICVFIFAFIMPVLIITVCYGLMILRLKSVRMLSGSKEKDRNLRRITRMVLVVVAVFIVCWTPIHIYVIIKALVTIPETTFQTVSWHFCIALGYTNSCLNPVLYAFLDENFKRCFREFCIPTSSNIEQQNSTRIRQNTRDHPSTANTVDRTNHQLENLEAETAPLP
Chain of Kappa-type opioid receptor (P41145 whole entry): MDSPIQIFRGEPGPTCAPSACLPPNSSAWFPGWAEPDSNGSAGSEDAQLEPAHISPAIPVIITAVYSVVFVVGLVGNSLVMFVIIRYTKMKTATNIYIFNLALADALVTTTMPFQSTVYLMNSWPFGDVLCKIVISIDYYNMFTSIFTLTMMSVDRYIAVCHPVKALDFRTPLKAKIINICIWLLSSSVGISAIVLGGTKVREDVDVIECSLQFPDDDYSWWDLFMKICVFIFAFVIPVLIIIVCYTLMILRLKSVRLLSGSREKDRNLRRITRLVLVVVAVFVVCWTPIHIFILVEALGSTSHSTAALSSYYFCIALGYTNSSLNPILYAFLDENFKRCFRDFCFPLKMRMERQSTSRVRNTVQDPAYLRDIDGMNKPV
Chain of Beta-2 adrenergic receptor (P07550 whole entry): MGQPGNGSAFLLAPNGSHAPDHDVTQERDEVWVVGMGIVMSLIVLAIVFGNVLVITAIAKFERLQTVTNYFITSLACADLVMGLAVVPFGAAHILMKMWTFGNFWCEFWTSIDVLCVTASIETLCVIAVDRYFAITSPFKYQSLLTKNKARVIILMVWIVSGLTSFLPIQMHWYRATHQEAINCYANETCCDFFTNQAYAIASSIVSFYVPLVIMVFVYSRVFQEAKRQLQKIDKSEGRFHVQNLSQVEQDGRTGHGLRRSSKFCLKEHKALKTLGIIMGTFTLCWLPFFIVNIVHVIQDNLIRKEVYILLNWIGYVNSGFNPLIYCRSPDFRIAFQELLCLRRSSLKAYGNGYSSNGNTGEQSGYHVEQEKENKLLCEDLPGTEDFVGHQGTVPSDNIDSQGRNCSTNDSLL

| Compound | AC50 [1] | AC50 (Cannabinoid receptor 1) | AC50 (Endothelin-1 receptor) | AC50 (Estrogen receptor) | AC50 [2] | AC50 (Mu-type opioid receptor) | AC50 [3] | AC50 (Acetylcholinesterase) | AC50 (D(3) dopamine receptor) | AC50 [4] | AC50 (Thromboxane A2 receptor) | AC50 (Adenosine receptor A3) | AC50 [5] |
| --- | --- | --- | --- | --- | --- | --- | --- | --- | --- | --- | --- | --- | --- |
| CC(CCc1ccc(O)cc1)NCCc1ccc(O)c(O)c1 (stereo unspecified) [DOBUTAMINE] | > 30 µM | > 30 µM | > 30 µM | > 30 µM | 6.86 µM | > 30 µM | – | – | – | – | – | – | – |
| C[C@]12CC[C@@H]3c4ccc(O)cc4C[C@@H](CCCCCCCCC[S+]([O-])CCCC(F)(F)C(F)(F)F)[C@H]3[C@@H]1CC[C@@H]2O (stereo partly specified) [FULVESTRANT] | > 30 µM | > 30 µM | > 30 µM | – | > 30 µM | > 30 µM | > 30 µM | – | – | – | – | – | – |
| O=[N+]([O-])c1ccc(O)c2ncccc12 [NITROXOLINE] | > 30 µM | > 30 µM | – | – | 9.3 µM | – | 7.6 µM | > 10 µM | 20.4 µM | > 30 µM | > 30 µM | – | – |
| Oc1ccc2c(c1)CC[C@H](c1ccccc1)[C@@H]2c1ccc(OCCN2CCCC2)cc1 [LASOFOXIFENE] | > 30 µM | > 30 µM | > 30 µM | – | 0.0849 µM | > 30 µM | 11 µM | – | – | – | – | – | – |
| CCC(=O)O[C@]1(C(=O)SCF)[C@H](C)C[C@H]2[C@@H]3C[C@H](F)C4=CC(=O)C=C[C@]4(C)[C@@]3(F)[C@@H](O)C[C@@]21C [FLUTICASONE PROPIONATE] | > 30 µM | > 30 µM | > 30 µM | – | > 30 µM | > 30 µM | > 30 µM | > 30 µM | > 30 µM | > 30 µM | > 30 µM | 23.2 µM | > 30 µM |
| CCC(C)C1(CC)C(=O)NC(=O)NC1=O (stereo unspecified) [BUTABARBITAL] | > 30 µM | > 30 µM | > 30 µM | > 30 µM | – | > 30 µM | – | – | – | – | – | – | – |
| CN1CCN(C2=Nc3ccccc3Oc3ccc(Cl)cc32)CC1 [LOXAPINE] | > 30 µM | > 30 µM | > 30 µM | > 30 µM | 8.24 µM | > 30 µM | – | > 30 µM | 0.019 µM | 0.482 µM | 18.5 µM | 27.4 µM | 0.0734 µM |
| CN(C)CCCNc1c2ccccc2nc2cccc([N+](=O)[O-])c12 [NITRACRINE] | > 30 µM | > 30 µM | > 30 µM | > 30 µM | > 30 µM | > 30 µM | 19 µM | – | – | – | – | – | – |
| C/N=C(\NC)NCc1ccccc1 [BETHANIDINE] | > 30 µM | > 30 µM | > 30 µM | > 30 µM | > 30 µM | > 30 µM | > 30 µM | – | – | – | – | – | – |
| CC(=O)N[C@@H](CS)C(=O)O [ACETYLCYSTEINE] | > 30 µM | > 30 µM | > 30 µM | > 30 µM | > 30 µM | > 30 µM | > 30 µM | – | – | – | – | – | – |
| CC(C(=O)O)c1ccc(CC2CCCC2=O)cc1 (stereo unspecified) [LOXOPROFEN] | > 30 µM | > 30 µM | > 30 µM | > 30 µM | 0.66 µM | > 30 µM | – | – | – | – | – | – | – |
| Cc1cc(C(C)(C)C)cc(C)c1CC1=NCCN1 [XYLOMETAZOLINE] | > 30 µM | > 30 µM | > 30 µM | > 30 µM | 20 µM | > 30 µM | 10 µM | – | – | – | – | – | – |
| CC12CC3CC(C)(C1)CC(N)(C3)C2 [MEMANTINE] | > 30 µM | > 30 µM | > 30 µM | 1.6 µM | 15.2 µM | – | > 30 µM | – | – | – | – | – | – |
| CCOC(=O)C1=C[C@]2(CC)CCCN3CCc4c(n1c1ccccc41)[C@@H]32 [VINPOCETINE] | > 30 µM | > 30 µM | > 30 µM | – | > 30 µM | > 30 µM | > 30 µM | – | – | – | – | – | – |
| CCC(=O)O[C@H]1CC[C@H]2[C@@H]3CCC4=CC(=O)CC[C@]4(C)[C@H]3CC[C@]12C [TESTOSTERONE PROPIONATE] | > 30 µM | > 30 µM | – | > 30 µM | 7.71 µM | – | > 10 µM | – | – | – | – | – | – |
| CCCCC(=O)O[C@]1(C(=O)CO)[C@@H](C)C[C@H]2[C@@H]3CCC4=CC(=O)C=C[C@]4(C)[C@@]3(F)[C@@H](O)C[C@@]21C [BETAMETHASONE VALERATE] | > 30 µM | > 30 µM | – | > 30 µM | > 10 µM | – | > 30 µM | – | – | – | – | – | – |
| CC(N)C(O)c1ccccc1 (stereo unspecified) [PHENYLPROPANOLAMINE] | > 30 µM | – | > 30 µM | – | > 10 µM | – | – | – | – | – | – | – | – |
| CCC(C)C(CC)C(N)=O (stereo unspecified) [VALNOCTAMIDE] | > 30 µM | > 30 µM | > 30 µM | > 30 µM | > 30 µM | > 30 µM | > 30 µM | – | – | – | – | – | – |
| CCOC(=O)C1=C(C)NC(C)=C(C(=O)OC)C1c1cccc([N+](=O)[O-])c1 (stereo unspecified) [NITRENDIPINE] | > 30 µM | 22 µM | > 30 µM | > 30 µM | > 10 µM | – | – | – | – | – | – | – | – |
